Measured values reported in patent publication US10272110B2, “Methods for promoting HSC engraftment” (CHILDREN'S MEDICAL CENTER CORPORATION, priority 2006, dated 2019).
Read-outs that look alike come from different tables or passages of the source.

Experiments:
runx1/cmyb+ AGM HSCs = conditions: for Effect on HSC expression (# embryos altered/# embryos scored): runx1/cmyb+ HSCs, zebrafish embryos
Experimental: A chemical genetic screen was conducted to identify novel pathways that modulate definitive HSC formation during zebrafish embryogenesis. FIG. 1. Genes such as runx1 and cmyb, required for HSC development during mammalian hematopoiesis, are expressed in the ventral wall of the dorsal aorta in a region analogous to the mammalian AGM at thirty-six hours post-fertilization (hpf). […] Wild-type embryos were incubated with individual compounds from the three-somite stage until thirty-six hpf. Probes for runx1 and cmyb were combined and utilized to detect HSCs by in situ hybridization.
Wild-type age-matched embryos were arrayed into 48-well plates (˜5 embryos/well) of individual test compounds and exposed from 3-somites until 36 hpf. […] In situ hybridization for runx1 and cmyb was performed to assess HSCs. Compounds were retested at 10 μM, 20 μM, and 50 μM. Stem cell specificity was assessed using flk1 at 36 hpf. PGE2, PGI2, dmPGE2 and all cox inhibitors (Sigma) were used at 10 μM to 20 μM.
Qualitative scoring (# embryos with altered HSCs/# scored) of runx1/cmyb was conducted using the following criteria: Normal/unchanged=continuous line of runx1/cmyb+ endothelial cells and occasional hematopoietic clusters. Decreased/absent=reduction in runx1/cmyb+ cells, including the presence of large gaps in the line of HSCs, isolated positive cells, or absence of expression. Increased/excess=enhancement in runx1/cmyb^+ cells, including many HSC clusters, a thickened line of HSCs, or ectopic expression.

[1] = test system: CFU-S from murine bone marrow cells; test: Murine colony-forming units-spleen (CFU-S); type: in vivo, mouse; conditions: CFUS12, WBM treated ex vivo
Experimental: Two independent BM samples were treated (n=5/treatment×2 replicates) for each variable. Recipient mice were lethally irradiated with a split dose of 10 Gy. 6×10^4 unfractionated dmPGE2 or control-treated BM cells were injected retro-orbitally into irradiated recipient mice. Spleens were dissected on day eight or twelve, weighed and fixed with Bouin's solution; hematopoietic colonies per spleen were counted. 1×10^5 cells/recipient were transplanted after treatment with the cox inhibitors. FACS sorted ckit^+sca1^+lineage^− BM cells were treated as above and transplanted at a dose of either 100 cells/recipient or 300 cells/recipient.

[2] = test system: peripheral blood and bone marrow WBC; test: 5-Fluorouracil bone marrow injury; type: in vivo, mouse; conditions: in vivo exposure, IP, 1 mg/kg
Experimental: Mice were treated with 5-FU (150 mg/kg) as described. Venezia et al., 2004. […] Peripheral blood was obtained on day seven and day fourteen, quantified and subjected to multilineage FACS analysis using antibodies (eBioscience) to B220/IgM (B-lymphoid), CD4/8 (T-lymphoid), Mac1/Gr1 (myeloid), Ter119/CD71 (erythroid) and ckit/sca1 (stem/progenitor). Mice were sacrificed on day 16, and bone marrow was isolated, quantified and analyzed by FACS.

[3] = test system: kidney marrow (KM) hematopoietic lineages; test: Kidney marrow irradiation recovery assay in adult zebrafish; conditions: 10 μM, irradiated adult zebrafish
Excerpt: Wild-type fish were sublethally irradiated, exposed to dmPGE2, and evaluated for kinetics of KM recovery by FACS 11 (FIG. 4A).
Adult zebrafish were exposed to 23 Gy of γ-irradiation. […] Whole KM isolated on days 0, 2, 4, 7, 10, 14 was subjected to FSC/SSC FACS analysis to identify hematopoietic lineages (n=5/treatment×3 replicates).

vasculature (flk1) = conditions: zebrafish embryos, 36 hpf
Experimental: Wild-type age-matched embryos were arrayed into 48-well plates (˜5 embryos/well) of individual test compounds and exposed from 3-somites until 36 hpf. Three compound libraries were utilized: NINDS Custom Collection (1040), SpecPlus Collection (960) and BIOMOL ICCB Known Bioactives (480). […] In situ hybridization for runx1 and cmyb was performed to assess HSCs. Compounds were retested at 10 μM, 20 μM, and 50 μM. Stem cell specificity was assessed using flk1 at 36 hpf. PGE2, PGI2, dmPGE2 and all cox inhibitors (Sigma) were used at 10 μM to 20 μM.

[4] = exposure from three somites to 36 hpf, runx1/cmyb staining

SMILES	effect on AGM HSCs in zebrafish embryos (in words) (runx1/cmyb+ AGM HSCs; [4])	further results
COc1cccc(-c2cc(=O)c3ccccc3o2)c1N [PD9805]	inhibit HCS	
CCCCCCOC(=O)[C@]1(O)C[C@@H]2O[C@@]1(C)n1c3ccccc3c3c4c(c5c6ccccc6n2c5c31)C(=O)NC4 [KT5720]	inhibit HCS	
CC(C)Cc1ccc(C(C)C(=O)O)cc1 (stereo not drawn) [Ibuprofen]	reduced stem cells in the aorta	
CCCCC[C@H](O)/C=C/C=C\CCCCCCCC(=O)O [13(S)-HODE]		Effect on HSC expression (# embryos altered/# embryos scored) (runx1/cmyb+ AGM HSCs; Table 1, 36 hpf): Increase (15/25)
CCCCC1(COC(=O)CCC(=O)O)C(=O)N(c2ccccc2)N(c2ccccc2)C1=O [Suxibuzone]		Effect on HSC expression (# embryos altered/# embryos scored) (runx1/cmyb+ AGM HSCs; Table 2, 36 hpf): Decrease (16/30)
[Cl-].[Li+] [lithium chloride]	HSC enhancers	
CC(C)NCC(O)COc1ccc(CC(N)=O)cc1 (stereo not drawn) [Atenolol]	heightened production of AGM stem cells	
CCCc1c(OCCCCc2nnn[nH]2)ccc(C(C)=O)c1O [Ly-171883]		Effect on HSC expression (# embryos altered/# embryos scored) (runx1/cmyb+ AGM HSCs; Table 1, 36 hpf): Increase (17/26)
O=C(O)CCC(=O)c1ccc(-c2ccccc2)cc1 [Fenbufen]	decreased HSCs	Effect on HSC expression (# embryos altered/# embryos scored) (runx1/cmyb+ AGM HSCs; Table 2, 36 hpf): Decrease (20/26)
CCCCCC1OC1C/C=C\C/C=C\C/C=C\CCCC(=O)O (stereo not drawn) [Epoxyeicosatrienoic Acid]		Effect on HSC expression (# embryos altered/# embryos scored) (runx1/cmyb+ AGM HSCs; Table 1, 36 hpf): Increase (17/25)
C[C@]12CC[C@H]3[C@@H](CC[C@]4(O)C[C@@H](O)CC[C@]34C=O)[C@@]1(O)CC[C@@H]2C1=CC(=O)OC1 [Strophanthidin]	increases AGM stem cells	
CC1=C(CC(=O)O)c2cc(F)ccc2/C1=C\c1ccc([S+](C)[O-])cc1 (stereo not drawn) [Sulindac]		Effect on HSC expression (# embryos altered/# embryos scored) (runx1/cmyb+ AGM HSCs; Table 2, 36 hpf): Decrease (18/31)
CCCCC[C@H](O)/C=C/[C@H]1[C@H](O)CC(=O)[C@@H]1C/C=C/CCCC(=O)O (relative stereo) [5-trans PGE2]		toxicity in zebrafish embryo screen (runx1/cmyb+ AGM HSCs; Table 4): toxic
O=C1Nc2cc(Br)ccc2/C1=C1/Nc2ccccc2/C1=N\O [BIO]	HSC enhancers	
CCCC(CCC)C(=O)O [Valproic Acid]	inhibit HCSs	
CS(=O)(=O)Nc1ccc([N+](=O)[O-])cc1OC1CCCCC1 [NS398]	reduced stem cells in the aorta	decreased runx1/cmyb+ HSCs (# embryos altered/# scored) (runx1/cmyb+ AGM HSCs; 20 μM, 36 hpf): 35/44; CFUS activity under selective cox inhibition [1]: significantly alter CFUS activity; peripheral blood (day 14) and bone marrow (day 16) WBC counts after 5-FU injury [2]: significantly inhibited WBC recovery; survival of irradiated fish to day fourteen [3]: excessive death
COc1ccc2cc([C@H](C)C(=O)O)ccc2c1 [Naproxen]	reduced stem cells in the aorta	
CCCCC[C@H](O)/C=C/[C@@H]1[C@@H](C/C=C\CCCC(=O)O)[C@@H](O)C[C@H]1O [PGF2]	no effect	
O=S(=O)(NCCNC/C=C/c1ccc(Br)cc1)c1cccc2cnccc12 [H89]	inhibit HCS	
CCCCC/C=C\C/C=C\CCCCCCCC(=O)O [Linoleic Acid]	upregulated HSC formation	Effect on HSC expression (# embryos altered/# embryos scored) (runx1/cmyb+ AGM HSCs; Table 1, 36 hpf): Increase (22/30); effect on vasculature / flk1 staining (in words) (vasculature (flk1)): remained relatively unchanged
Cc1ccc(-c2cc(C(F)(F)F)nn2-c2ccc(S(N)(=O)=O)cc2)cc1 [Celecoxib]		decreased runx1/cmyb+ HSCs (# embryos altered/# scored) (runx1/cmyb+ AGM HSCs; 20 μM, 36 hpf): 26/31
CC(=O)Oc1ccccc1C(=O)O [Aspirin]	reduced stem cells in the aorta	
N#CC(=C(/N)Sc1ccccc1N)/C(C#N)=C(\N)Sc1ccccc1N [U0126]		effect on AGM HSCs in zebrafish embryos (in words) (runx1/cmyb+ AGM HSCs; zebrafish, in vivo): inhibit HCS
CCCCC[C@H](O)/C=C/[C@@H]1[C@H]2C/C(=C/CCCC(=O)O)O[C@H]2C[C@H]1O [PGI2]	increase moderately	increased runx1/cmyb expression (# embryos altered/# scored) (runx1/cmyb+ AGM HSCs; 20 μM, 36 hpf): 28/47
CCCCC[C@H](O)/C=C/[C@H]1C(=O)C=C[C@@H]1C/C=C\CCCC(=O)O [Prosteglandin J2]		Effect on HSC expression (# embryos altered/# embryos scored) (runx1/cmyb+ AGM HSCs; Table 2, 36 hpf): Decrease (12/22)
O=C1Cc2c([nH]c3ccc(Br)cc23)-c2ccccc2N1 [Kenpaullone]	inhibit HCSs	
CCCCCCCC/C=C\C/C=C\C/C=C\CCCC(=O)O [Mead Acid]	upregulated HSC formation	Effect on HSC expression (# embryos altered/# embryos scored) (runx1/cmyb+ AGM HSCs; Table 1, 36 hpf): Increase (24/32)
